Assay results from paper PMC10610505, “Synthesis and Biological Evaluation of Some New 3-Aryl-2-thioxo-2,3-dihydroquinazolin-4(1H)-ones and 3-Aryl-2-(benzylthio)quinazolin-4(3H)-ones as Antioxidants; COX-2, LDHA, α-Glucosidase and α-Amylase Inhibitors; and Anti-Colon Carcinoma and Apoptosis-Inducing Agents” (Pharmaceuticals, 2023).
“And” between values parts separate entries of the source, which are not always exact repeats. Identical values can stand only once. Like-named read-outs stand apart in the source and are kept apart here.

How the values were obtained:
[1] = DPPH radical scavenging assay; format: biochemical; conditions: for Mean IC50 for scavenging initial DPPH radicals: mean ± SD of three replicates; for IC50: mean ± SD, converted from mg/mL, read-out: Mean IC50 for scavenging initial DPPH radicals (converted)
Description: In principle, the antioxidant power of a compound in this assay is correlated to its tendency to reduce the stable, purple-colored DPPH radical through a hydrogen atom transfer (HAT) mechanism and/or a single electron transfer mechanism, thereby converting it to the yellow-colored 2,2-diphenyl-1-picrylhydrazine, whereby this reduction is accompanied by a depletion in the amount of the initial DPPH radicals and a change in the absorbance of the test solution accordingly, which can be detected relative to the blank solution at λ = 517 nm.
The antioxidant potencies of all synthesized compounds were investigated using a 1,1 diphenyl-2-picrylhydrazyl (DPPH) radical scavenging assay according to the protocol described by Bersuder et al.. In brief, a 0.5 mL volume of DPPH ethanolic solution was mixed with an equal volume of each sample concentration (i.e., the test compound or butylated hydroxytoluene, BHT, which was used as the reference antioxidant in the positive control experiment), shaken strongly, and incubated at room temperature for 1 h in darkness. The absorbance of the residual DPPH radicals was measured at λ = 519 nm and compared to the negative control (without the test compound or reference antioxidant). The DPPH radical scavenging power was calculated using the following formula: scavenging efficiency (%) = (1 − Acompound/AControl) × 100, where Acompound and Acontrol are the absorbance of the tested compound and the negative control, respectively. […] Additionally, the ± SD values were calculated from three independent triplicate measurements.

[2] = Viability assay (LDH release), HUVEC; format: cell-based, human; conditions: human
Protocol: (§1) The samples were diluted in Dulbecco’s Modified Eagle’s Medium, consisting of 10% fetal bovine serum (FBS), added to cells grown and cultured for 24 h in a 5% CO2-humidified incubator at 37 °C. Thereafter, the activity of lactate dehydrogenase released from damaged cells was determined in the collected supernatant aliquots using an ELISA end-point assay (Benchmark Plus, Bio-Rad, CA, USA); 0.1% Triton X-100 in the assay medium and the assay medium only were used as the positive and negative controls, respectively. Cell viability was expressed as a relative percentage of the OD values (at 550 nm) for compound-treated cells (final concentration of 200 µg /mL) and the negative control, which was shown as the mean % ± SD (n = 3). The results of the viability assays for the potential cytotoxic candidates were compared with the % of viable human umbilical vein endothelial cells (HUVEC) at the same concentration. These cells were grown in Dulbecco’s Modified Eagle’s Medium (PAN-Biotech; Barcelona, Spain) containing 10% FBS (Sigma Aldrich; St. Quentin-Fallavier, France), 2 mM Glutamine (Sigma Aldrich), 100 units/mL penicillin and […] streptomycin (Life Technologies; Paisley, UK).

[3] = test system: LoVo human colon carcinoma cells; assay: Viability assay (LDH release), LoVo; format: cell-based; conditions: for IC50 / viability at 200 µg/mL: Homo sapiens, LoVo; for IC50: from concentration–response curves; for viability at 200 µg/mL: read-out: Mean % of viable cells ± SD, LoVo
Protocol: (§2) The anticancer activities of all the synthesized compounds were assessed against two human colon carcinoma cell lines, namely LoVo and HCT-116 (Table 6), via the determination of the mean percents of the viable cancerous cells remaining after being incubated with 200 µg/mL of each test compound for 48 h using LDH assay.
as §1

COX-2 = target: T1, COX-2 (Homo sapiens, UniProt P35354); assay: COX-2 inhibitory screening assay (Cayman kit); format: biochemical; conditions: for Increase in COX-2 inhibitory efficiency by duplicating the concentration: % inhibition at 0.200 mg/mL divided by % inhibition at 0.100 mg/mL; for inhibition at 100 µg/mL / inhibition at 200 µg/mL: read-out: COX-2 mean % inhibition ± SD
T1 construct: purchased Cayman Chemical Company 701080
T1 sequence (P35354 18-604): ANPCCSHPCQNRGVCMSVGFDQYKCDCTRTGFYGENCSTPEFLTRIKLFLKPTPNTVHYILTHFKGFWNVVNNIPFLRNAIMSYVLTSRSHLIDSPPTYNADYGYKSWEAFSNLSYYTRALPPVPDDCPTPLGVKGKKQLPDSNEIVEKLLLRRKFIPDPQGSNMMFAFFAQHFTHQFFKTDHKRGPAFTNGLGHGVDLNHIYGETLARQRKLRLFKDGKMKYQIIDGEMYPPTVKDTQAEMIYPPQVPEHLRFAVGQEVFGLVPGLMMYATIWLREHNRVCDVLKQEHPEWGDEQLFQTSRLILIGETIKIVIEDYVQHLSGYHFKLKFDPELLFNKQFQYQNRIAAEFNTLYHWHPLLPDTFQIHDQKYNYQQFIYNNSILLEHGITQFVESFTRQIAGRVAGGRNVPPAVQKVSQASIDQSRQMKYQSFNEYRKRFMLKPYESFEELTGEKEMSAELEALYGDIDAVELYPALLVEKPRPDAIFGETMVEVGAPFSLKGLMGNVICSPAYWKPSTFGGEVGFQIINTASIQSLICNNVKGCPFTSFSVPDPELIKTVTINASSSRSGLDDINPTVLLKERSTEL
Protocol: Each compound of the two series, 3a–h and 5a–h, was resuspended in 100% DMSO at a final concentration of 10 mg/mL. […] Briefly, 10 µL of the tested compound was added to a mixture of the reaction buffer solution (160 µL of 0.1 M Tris-HCl, pH 8.0, in the presence of 2 mM phenol and 5 mM EDTA), COX-2 (10 µL) and heme (10 µL). After a 10 min incubation at 37 °C, the reaction was started by adding arachidonic acid (10 µL), rapidly mixed and kept at 37 °C for 2 min. PGF2α generated via PGH2 reduction with stannous chloride (30 µL) was incubated at room temperature for 5 min. The PGF2α amount was then determined via an enzyme immunoassay. Prior to incubation with the COX-2 reaction (at room temperature 18 h), the 96-well plate was previously coated with a mouse anti-rabbit monoclonal antibody. Unbound reagents were removed by washing the plate followed by adding Ellman’s reagent to the well. The reaction product displaying a distinct yellow color was measured at 410 nm using a UV microplate reader. The % inhibition was calculated by comparing the PGF2α produced in the compound-treated samples with a control sample, using the following equation: % inhibition is equal to [([PGF2α]control − [PGF2α]sample) /[PGF2α ]control ] × 100. […] The COX-2 inhibitory efficiency was expressed as an inhibition percentage, which was determined via a comparison with the negative control experiments.

[4] = test system: HCT-116 human colon carcinoma cells; assay: Viability assay (LDH release), HCT-116; format: cell-based; conditions: for IC50 / viability at 200 µg/mL: Homo sapiens; for IC50: HCT-116, from concentration–response curves; for viability at 200 µg/mL: read-out: Mean % of viable cells ± SD, HCT-116
Protocol: as §2, §1

[5] = target: purified recombinant human LDHA protein (Homo sapiens, UniProt P00338); assay: Lactate dehydrogenase A (LDHA) inhibitory assay; format: biochemical; conditions: for Fold change of LDHA inhibition as compared to 0.1 mg/mL: % inhibition at 0.200 mg/mL divided by % inhibition at 0.100 mg/mL; for inhibition at 100 µg/mL / inhibition at 200 µg/mL: read-out: LDHA mean % inhibition ± SD
Protocol: The LDHA inhibitory effectiveness was investigated by measuring the amounts of consumed NADH [73]. […] The fluorescence of NADH, which has an excitation wavelength of 340 nm and an emission wavelength of 460 nm, was detected using a spectrofluorometer. […] The LDHA inhibitory efficiency was expressed as an inhibition percentage, which was determined via a comparison with the negative control experiments.

α-amylase = assay: In vitro α-amylase (AA) inhibition assay; conditions: mean ± SD of three replicates; for IC50: read-out: Mean IC50 α-Amylase (AA)
Protocol: Then, 180 µL of Labtest (the amylase substrate) was added and the samples were incubated for 8 min, followed by measuring the first reaction at 620 nm to obtain (X1). Afterwards, the reaction mixture was incubated for an additional 5 min at 37 °C; then, the second reaction was measured to obtain the final reading (X2). […] The results were expressed as IC50 µg/mL (as well as µM) and were determined from the standard curves.

[6] = target: α-glucosidase enzyme from Saccharomyces Cerevisiae (Saccharomyces cerevisiae, UniProt P53341); assay: In vitro α-glucosidase (AG) inhibitory activity; conditions: mean ± SD of three replicates
α-glucosidase enzyme from Saccharomyces Cerevisiae, sequence (P53341 whole entry): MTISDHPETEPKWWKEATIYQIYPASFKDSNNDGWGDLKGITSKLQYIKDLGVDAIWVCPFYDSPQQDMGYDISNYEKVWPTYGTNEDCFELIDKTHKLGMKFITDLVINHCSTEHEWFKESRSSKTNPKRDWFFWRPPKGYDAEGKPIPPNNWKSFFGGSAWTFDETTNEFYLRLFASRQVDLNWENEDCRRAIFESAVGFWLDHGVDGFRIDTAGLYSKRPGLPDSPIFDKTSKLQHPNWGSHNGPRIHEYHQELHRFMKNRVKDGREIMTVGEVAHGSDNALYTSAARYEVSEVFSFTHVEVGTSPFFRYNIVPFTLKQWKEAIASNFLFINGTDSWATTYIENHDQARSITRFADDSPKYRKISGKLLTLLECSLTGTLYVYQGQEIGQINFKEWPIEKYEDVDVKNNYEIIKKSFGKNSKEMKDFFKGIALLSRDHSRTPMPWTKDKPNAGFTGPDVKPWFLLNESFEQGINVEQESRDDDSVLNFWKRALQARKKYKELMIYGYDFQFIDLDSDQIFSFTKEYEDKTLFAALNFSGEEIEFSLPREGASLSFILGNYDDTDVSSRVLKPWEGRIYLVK
Protocol: Then, the reaction was allowed to start by adding 150 µL of the color reagent 4-NPGP and the resulting mixture was incubated for additional 15 min at 37 °C. Collectively, the colorimetric assay medium contained 2U of α-glucosidase, 5 mM of 4-NPGP and 10 mM of the potassium phosphate buffer with a pH of 6.9. […] The inhibitory efficiency of each compound was expressed as IC50 µg/mL (as well as µM), which was calculated from the corresponding calibration curve.

[7] = test system: non-tumoral human umbilical vein endothelial cells (HUVEC); assay: Viability assay (LDH release), HUVEC; format: cell-based; conditions: Homo sapiens, HUVEC
Protocol: as §1

[8] = human umbilical vein endothelial cells (HUVEC), 200 µg/mL, read-out: Mean % of viable cells ± SD, HUVEC

| Compound | Mean IC50 for scavenging initial DPPH radicals [1] | IC50 [1] | viability at 200 µg/mL [2, 8] | IC50 [3] | Increase in COX-2 inhibitory efficiency by duplicating the concentration (COX-2) | inhibition at 100 µg/mL (COX-2; at 0.100 mg/mL) | inhibition at 200 µg/mL (COX-2; at 0.200 mg/mL) | IC50 [4] | Fold change of LDHA inhibition as compared to 0.1 mg/mL [5] | inhibition at 100 µg/mL ([5]; at 0.1 mg/mL) | inhibition at 200 µg/mL ([5]; at 0.2 mg/mL) | Mean IC50 α-Amylase (AA) (α-amylase) | IC50 (α-amylase) | viability at 200 µg/mL ([3]; 48 h) | viability at 200 µg/mL ([4]; HCT-116, 48 h) | also measured |
| --- | --- | --- | --- | --- | --- | --- | --- | --- | --- | --- | --- | --- | --- | --- | --- | --- |
| O=c1c2cc(Br)ccc2nc(SCc2ccc(Cl)cc2)n1-c1cccc(C(F)(F)F)c1 [Compound 5b, 2-(4-Chloro-benzylsulfanyl)-6-bromo-3-(3-trifluoromethyl-phenyl)-3H-quinazolin-4-one] | 167 ± 10 µg/mL | 318 µM | 96.33 ± 0.577% | 161 µg/mL and 306 µM | 2.11 fold | 9.25 ± 1.77% | 19.5 ± 2.12% | 246 µg/mL and 468 µM | 1.55 fold | 14.5 ± 1.13% | 22.5 ± 1.7% | 162.000 ± 5.568 µg/mL | 308 µM |  |  | viability at 200 µg/mL ([3]; 200 µg/mL, 48 h): 37.7 ± 2.52%; viability at 200 µg/mL ([4]; HCT-116, 200 µg/mL, 48 h): 60.3 ± 2.52% |
| O=c1c2cc(Br)ccc2[nH]c(=S)n1-c1ccc([N+](=O)[O-])cc1 [Compound 3g, 6-Bromo-3-(4-nitro-phenyl)-2-thioxo-2,3-dihydro-1H-quinazolin-4-one] | 62.5 ± 2 µg/mL | 165 µM | 98.7 ± 1.16% | 222 µg/mL and 586 µM | 1.65 fold | 60 ± 2.83% | 98.9 ± 1.56% | 168 µg/mL and 444 µM |  | 68.2 ± 4.6% | 100% | 179.333 ± 7.768 µg/mL | 474 µM | 55.7 ± 3.06% | 42.3 ± 2.52% | IC50 (COX-2; mean ± SD of three replicates): 252 µM; IC50 ([5]; mean ± SD of three replicates): 242 µM |
| O=c1c2cc(Cl)ccc2nc(SCc2ccc(Cl)cc2)n1-c1ccc(C(F)(F)F)cc1 [Compound 5d, 2-(4-Chloro-benzylsulfanyl)-6-chloro-3-(4-trifluoromethyl-phenyl)-3H-quinazolin-4-one] | 200 ± 28 µg/mL | 416 µM |  |  | 1.68 fold |  |  |  | 1.47 fold |  |  | 181.667 ± 5.508 µg/mL | 377 µM |  |  | Mean % of viable cells ± SD, LoVo ([3]; 200 µg/mL, 48 h): 76.000 ± 1.732%; COX-2 mean % inhibition ± SD (COX-2; at 0.100 mg/mL): 26.300 ± 1.839%; COX-2 mean % inhibition ± SD (COX-2; at 0.200 mg/mL): 44.050 ± 1.344%; Mean % of viable cells ± SD, HCT-116 ([4]; 200 µg/mL, 48 h): 86.667 ± 1.528%; LDHA mean % inhibition ± SD ([5]; at 0.1 mg/mL): 13.850 ± 2.051%; LDHA mean % inhibition ± SD ([5]; at 0.2 mg/mL): 20.400 ± 1.980%; Mean IC50 α-Glucosidase (AG) [6]: 38.100 ± 0.656 µg/mL; IC50 ([6]; read-out: Mean IC50 α-Glucosidase (AG)): 79.2 µM |
| COc1cc2[nH]c(=S)n(-c3cccc(C(F)(F)F)c3)c(=O)c2cc1OC [Compound 3c, 6,7-Dimethoxy-2-thioxo-3-(3-trifluoromethyl-phenyl)-2,3-dihydro-1H-quinazolin-4-one] | 100 ± 14 µg/mL | 262 µM |  | 275 µg/mL and 720 µM | 2.05 fold | 9.85 ± 1.63% | 20.2 ± 1.13% | 281 µg/mL and 735 µM | 0.20 fold | 17.8 ± 1.56% | 30.8 ± 1.77% | 92.000 ± 3.000 µg/mL | 241 µM | 47.3 ± 2.52% | 65 ± 3.61% | viability at 200 µg/mL [2]: 99.67 ± 0.577% |
| O=c1[nH]cc(F)c(=O)[nH]1 [Compound 5-FU, 5-Fluorouracil, reference compound] |  |  | 57.3 ± 2.52% | 2.91 µg/mL and 22.4 µM |  |  |  | 11.8 µg/mL and 91.1 µM |  |  |  |  |  |  |  | IC50 [7]: 298 µg/mL and 2.29 mM; Selectivity index (IC50 normal cell / IC50 cell line), LoVo ([3]; HUVEC vs LoVo): 102.577; Selectivity index (IC50 normal cell / IC50 cell line), HCT-116 ([4]; HUVEC vs HCT-116): 25.190 |
